One assay has as its system cells. Put plainly: Cell images of cells co-cultured with the components of the nano/micro bubbles (FITC-insulin transmission). It counts as cell-based. The note with it: cells co-cultured with the component; stained with Cld 4, E-cadherin, DAPI; FIG. 3.
Another assay relates to diabetic rats. Nature of the assay: Blood glucose change in diabetic rats after oral or subcutaneous administration. It counts as in vivo, male Wistar rats. To be noted: subcutaneous injection, 5 IU/kg, 0 to 10 hours; FIG. 5. The procedure:
Animal experimental procedures were performed based on the management and use of laboratory animals guidelines promulgated by the Council of Agriculture. About 300 to 350 grams of male rats (male Wistar rats) were used. The animal experiments were performed to investigate the treatment of diabetic rats using insulin-embedded carrier system by oral administration of drugs. During experiment, the rats were administrated by oral (30 IU/Kg) and subcutaneous (5 IU/Kg) administration after the rats were fixed. At different times, the animals were placed in the blood-drawing fixation frame to expose the tail, and then the tails were disinfected with iodine to prevent bacterial infection. […] Meanwhile, pharmacokinetics was measured using enzyme immunoassay. In the present example, groups comprising nano/micro bubbles of the present invention (containing 30 IU/kg of insulin), oral administration (30 IU/kg of insulin) and subcutaneous injection of insulin (5 IU/kg) are compared. The change rates in plasma insulin and blood glucose concentration from 0 to 10 hours after subjects taking insulin or injected with insulin were recorded respectively, and the results are illustrated in FIGS. 5a and 5b.

For the compound `O=C(O)CN(CCN1CC(=O)OC(=O)C1)CCN1CC(=O)OC(=O)C1` [DTPA dianhydride, diethylenetriaminepentaacetic dianhydride], in the assay on cells, the “transmission of FITC-insulin (pathway)” value is listed as “can promote transmission of FITC-insulin via paracellular pathway”. As to insulin, in the assay with diabetic rats, the “change rate of the blood glucose” value was “rapidly declined and rose again”. In the case of `CCCCCCCCCCCCOS(=O)(=O)[O-].[Na+]` [SDS], the “transmission of FITC-insulin (pathway)” value in the assay with cells is “can promote transmission of FITC-insulin via both of paracellular pathway and transcellular pathway”.

The record behind these values is patent US9452130B2, “Pharmaceutical composition for preparing drug delivery nano/micro bubbles” (priority 2014, dated 2016).
